The values that follow come from patent publication US7956070B2, “Piperidines as chemokine modulators (CCR)” (AstraZeneca AB, priority 2004, dated 2011).

Data set [1] is described as follows: pKa measurement (Sirius GLpKa). In kind it is physicochemical. The procedure: The pKa of a compound of formula (I) is measured using one of the following methodologies.
The apparatus used consists of a Sirius GLpKa instrument with DPAS (Dip Probe Absorption Spectroscopy) attachment. Key elements of the apparatus are a Sirius pH electrode, stirrer, titrant dispensing tubes, a multi-tipped dispenser, motor driven dispensing syringes, fibre optic UV probe and diode array detector. In addition, solutions in PTFE containers of ionic strength adjusted (0.10 M KCl) distilled water, nominally 0.50 M HCl, nominally 0.50 M KOH and 80% v/v methanol:water are also housed within the instrument. The titration solutions are constantly purged with oxygen free nitrogen. The reservoir for the potassium hydroxide solution is further protected from atmospheric contamination by a soda-lime guard-tube. Samples are placed in titration vessels which in turn are placed in a movable autosampler tray (maximum capacity 48 samples). The electrode, stirrer, dispensing tubing/tips and DPAS probe are housed on a movable, automated z-tower unit, which, controlled by software, positions itself in the appropriate titration vessel when titrating. The Sirius GLpKa instrument is directly connected to a dedicated PC supporting software for assay setup and subsequent data analysis. Assays are set up using the GlpKaControl software and results are analysed using the pKaLOGP and pKaUV software on the PC. The software also allows determination of multiple pKas using complex curve fitting analyses.
Method B: Potentiometric Method
Two types of potentiometric titrations may be performed in order to determine a compound's pKa/pKas; a purely aqueous titration (recommended for fairly water soluble compounds) and a cosolvent titration, where variable amounts of methanol are added to the sample in addition to ionic strength adjusted water (recommended for compounds which are not soluble in water). For the latter, a value for the compound's pKa in pure ionic strength adjusted water can be estimated by the Yasuda-Shedlovsky procedure. This involves measuring the apparent pKa of the compound at three known weight percentages of methanol:water (transposed into reciprocals of the dielectric constants of the medium, 1/εr) and then extrapolating to 0 wt % methanol (1/εr=[…]).
The GLpKa instrument unit also houses two aqueous wash containers (containing distilled water), a waste beaker (to dispense extraneous solutions into) and a container holding pH 7.00 buffer solution for the electrode to be immersed in during periods between titrations. Each time a set of titrations is carried out, these solutions are replaced. Position 1 in the autosampler contains a titration vessel containing pH 7.00 buffer solution (changed for each titration set). For each titration set to be run, position 2 houses a titration vessel into which ionic strength adjusted water is dispensed (typically 15.00 mL). This in turn is adjusted to pH 1.80 with aqueous HCl and then titrated to pH 12.20 by gradual addition of aqueous KOH. This is referred to as a blank titration and is employed by the pKaLogP software in order to calibrate the pH electrode and to standardise the HCl solution, using the so-called four-plus parameter procedure. Periodically, (typically every 3 months, or when the titration solutions run low) the titration solutions are replaced and the KOH solution standardised against potassium hydrogen phthalate using a standardisation procedure within the GLpKaControl software. Between 1-2 mg of each sample must be accurately weighed out. Samples are placed in provided glass titration vessels. The weight of compound must be entered into the GLpKaControl software. […]

In data set [2] the target is T1, human H1 receptor (Homo sapiens, UniProt P35367).
T1 construct: purchased Euroscreen SA, Brussels, Belgium ES-390-M; host or cells: recombinant CHO-K1 cells (membranes)
Briefly: Histamine H1 receptor binding, competition displacement of [3H]-pyrilamine. The settings on record: 1 nM [3H]-pyrilamine, membranes from recombinant CHO-K1 cells expressing the human H1 receptor, 1 hour at room temperature; read-out: H1 pKi (converted). On the procedure:
Histamine H1 receptor binding activity of compounds of the invention was assessed by competition displacement of 1 nM [3H]-pyrilamine (Amersham, Bucks, Product code TRK 608, specific activity 30 Ci/mmol) to 2 μg membranes prepared from recombinant CHO-K1 cells expressing the human H1 receptor (Euroscreen SA, Brussels, Belgium, product code ES-390-M) in assay buffer (50 mM Tris pH 7.4 containing 2 mM MgCl2, 250 mM sucrose and 100 mM NaCl) for 1 hour at room temperature.
The following compounds of the invention gave inhibition of [3H]pyrilimine binding: […]
Background: Loss of bound radioactivity is the signal in a displacement assay; it reports binding, not function.

Setting [3] is: ionic strength adjusted (0.10 M KCl) water, Method B: potentiometric method, read-out: pKa (measured using Method B).

One may read the pKa as the negative logarithm of the acid dissociation constant.

Where two headings read alike, the source gives them in different places.

T1 sequence (P35367 whole entry): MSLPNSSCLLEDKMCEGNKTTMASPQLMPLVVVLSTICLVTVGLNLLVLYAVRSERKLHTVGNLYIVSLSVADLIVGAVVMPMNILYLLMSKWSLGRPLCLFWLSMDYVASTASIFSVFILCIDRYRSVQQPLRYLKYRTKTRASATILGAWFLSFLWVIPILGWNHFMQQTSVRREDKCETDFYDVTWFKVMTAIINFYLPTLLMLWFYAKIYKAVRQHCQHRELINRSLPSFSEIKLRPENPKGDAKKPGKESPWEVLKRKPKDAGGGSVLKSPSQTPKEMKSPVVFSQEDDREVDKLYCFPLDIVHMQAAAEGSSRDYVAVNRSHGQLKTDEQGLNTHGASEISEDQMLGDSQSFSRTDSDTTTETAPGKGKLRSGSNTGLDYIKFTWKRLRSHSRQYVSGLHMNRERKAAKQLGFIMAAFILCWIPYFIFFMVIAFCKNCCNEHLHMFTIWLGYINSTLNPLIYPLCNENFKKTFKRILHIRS

`Cc1c(OC2CCN(C[C@H](O)CNC(=O)c3ccc(Cl)c(C(=O)O)c3)CC2)ccc(Cl)c1Cl` [Example 42, 2-Chloro-5-[({(2R)-3-[4-(3,4-dichloro-2-methylphenoxy)piperidin-1-yl]-2-hydroxypropyl}amino)carbonyl]benzoic acid]: the pKa in data set [1] (method not stated, read-out: measured pKa) was 2.3. For the same compound, in data set [2], the Ki is 126 nM.

On to `CS(=O)(=O)Nc1cc(C(F)(F)F)c(C(=O)NC[C@@H](O)CN2CCC(Oc3ccc(Cl)c(Cl)c3)CC2)cn1` [Example 18, N-{(2R)-3-[4-(3,4-Dichlorophenoxy)piperidin-1-yl]-2-hydroxypropyl}-6-[(methylsulfonyl)amino]-4-(trifluoromethyl)nicotinamide], for which the pKa in data set [1] (setting [3]) came to 5.3. Besides, the Ki in data set [2] was 316 nM.

For the compound `O=C(NC[C@@H](O)CN1CCC(Oc2ccc(Cl)c(Cl)c2)CC1)c1sc(=O)[nH]c1-c1ccc(F)cc1` [Example 25, N-{(2R)-3-[4-(3,4-Dichlorophenoxy)piperidin-1-yl]-2-hydroxypropyl}-4-(4-fluorophenyl)-2-oxo-2,3-dihydro-1,3-thiazole-5-carboxamide], in data set [1] (setting [3]), the pKa is 7.4. Further, the Ki in data set [2] is 15.8 nM.

On to `N#Cc1cc(C(=O)NC[C@@H](O)CN2CCC(Oc3ccc(Cl)c(Cl)c3)CC2)c(C(F)(F)F)[nH]c1=O` [Example 10, 5-Cyano-N-{(2R)-3-[4-(3,4-dichlorophenoxy)piperidin-1-yl]-2-hydroxypropyl}-6-oxo-2-(trifluoromethyl)-1,6-dihydropyridine-3-carboxamide], for which the Ki in data set [2] is 126 nM.

Regarding `Cc1c(OC2CCN(C[C@H](O)CNC(=O)COc3cc(C(=O)O)ccc3Cl)CC2)ccc(Cl)c1Cl` [Example 44, 4-Chloro-3-[2-({(2R)-3-[4-(3,4-dichloro-2-methylphenoxy)piperidin-1-yl]-2-hydroxypropyl}amino)-2-oxoethoxy]benzoic acid], the Ki in data set [2] was 12.6 nM.

As to `Cc1[nH]nnc1C(=O)NC[C@@H](O)CN1CCC(Oc2ccc(Cl)c(Cl)c2)CC1` [Example 8, N-{(2R)-3-[4-(3,4-Dichlorophenoxy)piperidin-1-yl]-2-hydroxypropyl}-5-methyl-1H-1,2,3-triazole-4-carboxamide], the pKa in data set [1] (setting [3]) turned out to be 7.5. For the same compound, the Ki in data set [2] is 15.8 nM.

On to `N#Cc1cc(C(=O)NC[C@@H](O)CN2CCC(Oc3ccc(Cl)c(Cl)c3)CC2)c(C2CC2)[nH]c1=O` [Example 16, 5-Cyano-2-cyclopropyl-N-[(2R)-3-[4-(3,4-dichlorophenoxy)-1-piperidinyl]-2-hydroxypropyl]-1,6-dihydro-6-oxo-3-pyridinecarboxamide], for which the pKa in data set [1] (setting [3]) was 3.8. Besides, the Ki in data set [2] is 25.1 nM.

For the compound `Cn1c(C(=O)NC[C@@H](O)CN2CCC(Oc3ccc(Cl)c(Cl)c3)CC2)cc(=O)[nH]c1=O` [Example 14, N-{(2R)-3-[4-(3,4-Dichlorophenoxy)piperidin-1-yl]-2-hydroxypropyl}-3-methyl-2,6-dioxo-1,2,3,6-tetrahydropyrimidine-4-carboxamide], the Ki in data set [2] was 126 nM.
